SMILES strings stand for the structures.

A short description of series [1]: Titration of DPBS and DMEM/F12 + 10% FBS with different carbonate sources (pH effect). The format is physicochemical. The following applies: for Amount in ml that was needed to reach pH 8: 73.5 mM carbonate suspension or solution. From the text:
Two commercial media, Dulbecco's phosphate-buffered saline (DPBS) and Gibco Dulbecco's Modified Eagle Medium: Nutrient Mixture F-12 (DMEM/F12), with 10% Fetal Bovine Serum (FBS) were used to evaluate the pH effect of different sources of calcium carbonate. DPBS is Dulbecco's Phosphate Buffered Saline, generally serves as an isotonic saline solution or buffer for washing cells and tissues and intends to provide a buffer system for maintaining cell culture media in the physiological range of 7.2-7.6.
DMEM/F12 is a widely used basal medium for supporting the growth of many different mammalian cells. DMEM/F12 medium+10% FBS was used to maximally mimic the environment of the body fluids.
Three sources of calcium carbonate were used ACC, Sodium bicarbonate (SBC) and Crystalline Calcium Carbonate (CCC).
The final composition comprised 73.53 mM of CaCO3 in the water suspension.
The addition was done until a pH plateau was accomplished or the level of the solution reached the end of the capacity of the used container (˜130 ml).

The conditions of series [2]: oral administration of 300 mg/kg; Zajac 2009; cited from earlier work.
The conditions of series [3]: human performance; Requena 2005; cited from earlier work.
For series [4] the following is noted: chronic ingestion, 300 to 500 mg/kg; Lopes-Silva; cited from earlier work.
Another series relates to athletes. The settings on record: about 20-35 g/day; cited from earlier work.
For series [5] the following is noted: supplementation; Sounders 2016; cited from earlier work.

For the compound `O=C([O-])O.[Na+]` [SBC, Sodium bicarbonate], the “capability to reach higher pH levels” value in series [1] (SBC compared with CCC) is reported as “not significantly different”. In series [1] (added to DMEM/F12 + 10% FBS), the “Final pH” value was 8.3 and the “Amount in ml that was needed to reach pH 8” value (“Amount in ml that was needed” for short) turned out to be 77 ml. Besides, in series [1] (added to DPBS), the “Final pH” value amounted to 8.30 and the “Amount in ml that was needed” value amounted to 76.4 ml. The “training intensity and swimming performance” value in series [2] was “can increase training intensity and swimming performance”. Besides, in series [3], the “doses for which a significant effect was shown” value is on record as “above 300 mg/kg”. Moreover, the “Wingate test peak or mean power” value in series [4] is recorded as “chronic ingestion of NaHCO3 did”. Also, the reported adverse effects entry in the series on athletes is “stomach aches and discomfort, nausea, and vomiting”.
For the compound `NCCC(=O)O` [β-alanine], the effect on exercise result in series [5] is listed as “significant overall ergogenic effect”.
With `O=C([O-])[O-].[Ca+2]` [CCC, Crystalline Calcium Carbonate], in series [1] (added to DMEM/F12 + 10% FBS), the “Final pH” value worked out at 7.90 and the “Amount in ml that was needed” value is listed as 80 ml. Moreover, in series [1] (added to DPBS), the “Final pH” value is on record as 8 and the “Amount in ml that was needed” value stood at 65 ml.

The values above are taken from patent US12357656B2 (AMORPHICAL LTD, priority 2019, dated 2025).
